Measured values reported in patent publication US4430502A, “Pyridinyl substituted benzimidazoles and quinoxalines” (The Upjohn Company, priority 1982, dated 1984).

Target: T1, TXA2 synthetase (Homo sapiens, UniProt P24557)
T1 construct: human platelet microsomes (HPM); from tissue; host or cells: human platelet microsomes
T1 sequence (P24557 1-533): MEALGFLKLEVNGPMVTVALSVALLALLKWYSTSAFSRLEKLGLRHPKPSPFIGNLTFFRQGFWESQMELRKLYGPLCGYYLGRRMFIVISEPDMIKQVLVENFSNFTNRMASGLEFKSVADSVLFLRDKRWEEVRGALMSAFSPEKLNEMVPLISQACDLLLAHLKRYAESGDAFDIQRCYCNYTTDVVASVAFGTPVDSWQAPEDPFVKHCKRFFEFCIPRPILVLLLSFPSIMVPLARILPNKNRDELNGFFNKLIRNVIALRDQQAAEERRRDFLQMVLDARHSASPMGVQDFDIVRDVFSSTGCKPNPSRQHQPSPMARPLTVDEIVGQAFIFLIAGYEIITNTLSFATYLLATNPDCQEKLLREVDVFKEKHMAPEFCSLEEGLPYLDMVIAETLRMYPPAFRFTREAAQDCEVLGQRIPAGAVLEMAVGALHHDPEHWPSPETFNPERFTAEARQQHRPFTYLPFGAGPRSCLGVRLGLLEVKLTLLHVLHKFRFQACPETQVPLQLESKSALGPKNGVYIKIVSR
Assay: TXA2 inhibition test: TXA2 generated from PGH2 with human platelet microsomes, response of superfused rabbit aortic strips
Format: biochemical
Description: The compounds of the present invention were tested for TXA2 inhibition as follows:
Rabbit aortic strips were superfused in series with Krebs solution. Thromboxane A2 (TXA2) was generated by mixing prostaglandin H2 (PGH2) with human platelet microsomes (HPM).
Potential inhibitors were tested by comparing the response of the rabbit aorta to the amount of TXA2 produced by mixing PGH2 and HPM without the test compound in the reaction medium and then the amount of TXA2 produced when the test compound was added to the HPM 5 minutes before the HPM was mixed with PGH2. […] For a discussion of TXA2 synthetase inhibition testing see, e.g., R. Gorman, supra.

effectiveness in inhibiting TXA2 formation (compared with the other compounds tested in this test system): most effective
IC50 (test compound added to human platelet microsomes 5 minutes before mixing with PGH2, rabbit aorta response, read-out: approximate ED50 for inhibiting TXA2 formation (converted)): ~0.478 µM
Structure (SMILES): c1cncc(Cc2ccc3nc[nH]c3c2)c1 [Example 3, 5-(3-Pyridinylmethyl)benzimidazole]
